# Data from patent US9999609B2, “Methods for treating or preventing fatigue” (SK Biopharmaceuticals Co., Ltd., priority 2009, dated 2018).
# Assays:
# Format in all cases: in vivo
# [1] = system: adult human subjects with moderate or severe major depression without psychotic features; test: Randomized double-blind placebo- and active-controlled 6-week study in major depression; conditions: for ABCD questionnaire items (of 51) with statistically significant superiority to placebo: post hoc analyses
# Excerpt: This was a randomized, double-blind, parallel-group, active, and placebo-controlled, multicenter study conducted in the U.S. (23 centers) and Canada (4 centers). There were 2 phases: a pretreatment phase (screening/washout and a baseline visit) and a 6-week, double-blind treatment phase. Paroxetine, a positive control, was included to evaluate assay sensitivity. After washout (if needed) of prohibited substances, subjects were randomly assigned (1:1:1:1) to receive the test compound titrated to a target dose of 200 mg/day or 400 mg/day, matching placebo, or a fixed dose (20 mg/day) of paroxetine. Study drug was given twice daily for 6 weeks. Efficacy and safety were assessed weekly during the double-blind phase. Subjects completing the study underwent an Exit Interview (“Your Health and Well-Being”) and completed an Assessment of Benefits of Clinical-trial Drug-treatment (ABCD) questionnaire (U.S. sites only).
# [2] = system: C57BL/6J, AKR/J and DBA/2J mice; test: Sleep onset and vigilance states in three inbred mouse strains after IP injection
# Experimental: At least 7 adult male mice of inbred strains C57BL/6J, AKR/J, and DBA/2J were recorded in 2 sessions of 72 continuous hours. The first 24 h in each session are considered as baseline followed the next day by the saline injection and the next day by 150 mg/kg of the test compound in the first session and 5 mg/kg d-amphetamine in the second session. The two sessions were separated by 7 days (wash-out period) and all injections were intraperitoneal (IP) and performed at light onset (9 am) in a volume of 5 ml/kg.
# [3] = system: male adult Sprague Dawley rats; test: Sleep-wake organization (EEG/EOG/EMG) in rats after acute i.p. administration; conditions: for Duration Active wake / Duration Deep sleep / Duration Intemediate stage / Duration Light sleep / Duration Passive wake / Duration REM sleep / Latency ISWS / Latency REM sleep / Latency dSWS / Shifts: Shift from ISWS to AW / Shifts: Shift from ISWS to PW / Shifts: Shift from REMS to AW / Shifts: Shift from REMS to PW / Shifts: Shift from dSWS to AW / Shifts: Shift from dSWS to PW: rats, mean ± s.e.m of 8 rats; for Duration Active wake / Duration Deep sleep / Duration Intemediate stage / Duration Light sleep / Duration Passive wake / Duration REM sleep: 16 h recording
# [4] = system: hypocretin cell ablated narcoleptic mice (prepororexin/ataxin-3 transgenic) and their littermate wild-type mice; test: Sleep parameters (EEG/EMG polygraph) in narcoleptic and wild-type mice after oral dosing; conditions: for duration of continuous wakefulness: resting period (ZT 2), most wild-type and narcoleptic mice
# Excerpt: The polygraph signal (EEG and EMG) was captured with SleepSign (Kissei Comtech), and the sleep stage was visually scored with 10 sec epoch for wakefulness, non-REM sleep and REM sleep. Scoring criteria are: Wakefulness is characterized by desynchronized low-amplitude, mixed frequency (>4 Hz) EEG and high EMG activity. Rhythmic alpha (8-9 Hz) wave (with high EMG activities) may also appear. Non-REM is characterized by synchronized, high-amplitude, low-frequency (0.25-4 Hz) with reduced EMG activity (compared to wakefulness). EEG activity in REM sleep is similar to that in wakefulness, with desynchronized, mixed frequency low amplitude waves. Rhythmic alpha (8-9 Hz) wave with reduced EMG activities may also appear. […] is reduced even further and in many cases, completely absent. Same muscle twitching may be apparent in the EMG trace during REM sleep.
# Three drug doses of the test compound (50, 100 and 150 mg/kg PO) plus vehicle, were orally administered at ZT 2 (2 hours after light on) or ZT14 (2 hours after light off), and the effects on sleep were monitored for 6 hours after the drug administration (the sleep data was collected for 30 hours after the drug injection, and are available for further analysis). The doses for modafinil were 50 and 200 mg/kg PO (plus vehicle), and modafinil was also administered at ZT 2 and […]
# If the polygraph signals of some mice were not sufficient to score the sleep stage with accuracy (especially bad EMG), data from these animals were excluded, and the minimum of 5 animals (except for the highest dose of the test compound in wild-type mice in dark period, n=4) were included for the data analysis and number of animals were indicated in the figures.
# Effects of test compound and modafinil on the amount of wake, non-REM sleep, REM sleep (cumulative seconds), number of episodes for each sleep stage during 6 hours, and mean wake/sleep-bout lengths (seconds) were analyzed in each animal and the mean of each parameter was calculated in each genotype. The effects of compounds on wake and sleep amounts are useful to evaluate the wake promoting potency, and the number of episodes for each sloop stage and the mean wake/sleep bout length are parameters for evaluating the sleep fragmentation. Amphetamine and modafinil, two main wake-promoting compounds currently used for the treatment of EDS associated with various etiologies (narcolepsy, idiopathic hypersomnia and secondary EDS), are known to increase wake time and prolong wake bout length in normal and EDS conditions.
# A comparison of the effects between hypocretin deficient and wild-type mice is very useful in determining the wake-promotion of the test compound is dependent on the availability of hypocretins, and if there is a possible change in the sensitivity of the receptive mechanisms of test compound in narcoleptic mice due to the hypocretin ligand deficiency.
# [5] = 3 mg/kg i.p., 16 hours recording
# [6] = 30 mg/kg i.p., 16-h post-injection
smiles,measurement,setting,value
"NC(=O)OC[C@H](N)Cc1ccccc1 [test compound, (R)-(beta-amino-benzenepropyl) carbamate]",ABCD questionnaire items (of 51) with statistically significant superiority to placebo,[1]; 200 mg,14 items
same,ABCD questionnaire items (of 51) with statistically significant superiority to placebo,[1]; 400 mg,8 items
same,secondary efficacy variables of mood and well-being,"[1]; one or both doses (200 and 400 mg/day), 6 weeks",statistically significantly greater efficacy than placebo
same,"Insomnia, treatment-emergent adverse event incidence","[1]; target dose 200 mg/day, 6 weeks",24%
same,"Insomnia, treatment-emergent adverse event incidence","[1]; target dose 400 mg/day, 6 weeks",35%
same,genotype effect on wake time referenced to sleep latency after saline,[2]; 150 mg/kg IP,no genotype effect
same,duration of induced continuous wakefulness (sleep latency),"[2]; 150 mg/kg IP at light onset, three inbred strains",up to 4.5 hours
same,wakefulness duration compared with d-amphetamine 5 mg/kg,"[2]; 150 mg/kg IP, hourly wakefulness over 72 h recordings",significantly longer wakefulness duration than amphetamine
same,increase in total light sleep vs vehicle,[3]; [5],+26%
same,increased drive to wakefulness from deep sleep vs vehicle,[3]; [5],+15%
same,increased drive to wakefulness from light sleep vs vehicle,[3]; [5],+46%
same,increase in shifts from REM sleep towards active wakefulness vs vehicle,[3]; 10 mg/kg i.p.,+16%
same,increase in total duration of light sleep vs vehicle,[3]; 10 mg/kg i.p.,+24%
same,change in number of epochs of REM sleep,[3]; 30 mg/kg i.p.,−24%
same,change in number of epochs of active wakefulness,[3]; 30 mg/kg i.p.,+19%
same,change in number of epochs of light sleep,[3]; 30 mg/kg i.p.,−23%
same,change in number of epochs of passive wakefulness,[3]; 30 mg/kg i.p.,−30%
same,mean durations of sleep wake states,[3]; 30 mg/kg i.p.,not modified
same,onset of activity after administration,[3]; 30 mg/kg i.p.,~30 min
same,change of total time spent in REM sleep vs vehicle,[3]; [6],−25%
same,change of total time spent in active wakefulness vs vehicle,[3]; [6],+19%
same,change of total time spent in light sleep vs vehicle,[3]; [6],−20%
same,change of total time spent in passive wakefulness vs vehicle,[3]; [6],−29%
same,overall profile of effects,"[3]; 30 mg/kg i.p., beginning of the administration",psychostimulant-like properties
same,duration of rebound increase in deep sleep,"[3]; 30 mg/kg i.p., starting 3 hours after administration",about 7 hours
same,duration of central activity after injection,[3]; i.p.,at least 4 hours
same,time of peak in effect post administration,[3]; i.p.,around 2 hours
same,Duration Active wake,[3]; 3 mg/kg i.p.,290.0 ± 11.2 min
same,Duration Deep sleep,[3]; 3 mg/kg i.p.,125.0 ± 24.6 min
same,Duration Intemediate stage,[3]; 3 mg/kg i.p.,2.9 ± 0.7 min
same,Duration Light sleep,[3]; 3 mg/kg i.p.,374.7 ± 16.6 min
same,Duration Passive wake,[3]; 3 mg/kg i.p.,79.5 ± 10.7 min
same,Duration REM sleep,[3]; 3 mg/kg i.p.,84.0 ± 5.4 min
same,Latency ISWS,[3]; 3 mg/kg i.p.,15.6 ± 4.1 min
same,Latency REM sleep,[3]; 3 mg/kg i.p.,66.0 ± 11.8 min
same,Latency dSWS,[3]; 3 mg/kg i.p.,42.0 ± 8.5 min
same,Shifts: Shift from ISWS to AW,[3]; 3 mg/kg i.p.,217.8 ± 55.5 number
same,Shifts: Shift from ISWS to PW,[3]; 3 mg/kg i.p.,78.1 ± 35.8 number
same,Shifts: Shift from REMS to AW,[3]; 3 mg/kg i.p.,78.0 ± 21.6 number
same,Shifts: Shift from REMS to PW,[3]; 3 mg/kg i.p.,3.7 ± 3.0 number
same,Shifts: Shift from dSWS to AW,[3]; 3 mg/kg i.p.,9.7 ± 6.6 number
same,Shifts: Shift from dSWS to PW,[3]; 3 mg/kg i.p.,6.6 ± 5.9 number
same,Duration Active wake,[3]; 10 mg/kg i.p.,305.5 ± 15.1 min
same,Duration Deep sleep,[3]; 10 mg/kg i.p.,104.0 ± 19.3 min
same,Duration Intemediate stage,[3]; 10 mg/kg i.p.,5.2 ± 0.7 min
same,Duration Light sleep,[3]; 10 mg/kg i.p.,366.6 ± 21.2 min
same,Duration Passive wake,[3]; 10 mg/kg i.p.,73.1 ± 13.2 min
same,Duration REM sleep,[3]; 10 mg/kg i.p.,102.3 ± 4.6 min
same,Latency ISWS,[3]; 10 mg/kg i.p.,30.4 ± 7.9 min
same,Latency REM sleep,[3]; 10 mg/kg i.p.,87.5 ± 14.5 min
same,Latency dSWS,[3]; 10 mg/kg i.p.,127.2 ± 67.1 min
same,Shifts: Shift from ISWS to AW,[3]; 10 mg/kg i.p.,204.5 ± 56.4 number
same,Shifts: Shift from ISWS to PW,[3]; 10 mg/kg i.p.,84.4 ± 40.5 number
same,Shifts: Shift from REMS to AW,[3]; 10 mg/kg i.p.,94.1 ± 24.0 number
same,Shifts: Shift from REMS to PW,[3]; 10 mg/kg i.p.,8.9 ± 6.7 number
same,Shifts: Shift from dSWS to AW,[3]; 10 mg/kg i.p.,4.2 ± 3.1 number
same,Shifts: Shift from dSWS to PW,[3]; 10 mg/kg i.p.,12.5 ± 8.5 number
same,Duration Active wake,[3]; 30 mg/kg i.p.,371.6 ± 7.7 min
same,Duration Deep sleep,[3]; 30 mg/kg i.p.,214.9 ± 15.6 min
same,Duration Intemediate stage,[3]; 30 mg/kg i.p.,4.0 ± 1.0 min
same,Duration Light sleep,[3]; 30 mg/kg i.p.,235.8 ± 14.3 min
same,Duration Passive wake,[3]; 30 mg/kg i.p.,57.3 ± 4.7 min
same,Duration REM sleep,[3]; 30 mg/kg i.p.,72.9 ± 7.3 min
same,Latency ISWS,[3]; 30 mg/kg i.p.,73.6 ± 25.7 min
same,Latency REM sleep,[3]; 30 mg/kg i.p.,251.8 ± 32.0 min
same,Latency dSWS,[3]; 30 mg/kg i.p.,174.6 ± 12.3 min
same,Shifts: Shift from ISWS to AW,[3]; 30 mg/kg i.p.,221.9 ± 58.3 number
same,Shifts: Shift from ISWS to PW,[3]; 30 mg/kg i.p.,74.2 ± 29.0 number
same,Shifts: Shift from REMS to AW,[3]; 30 mg/kg i.p.,65.1 ± 21.8 number
same,Shifts: Shift from REMS to PW,[3]; 30 mg/kg i.p.,4.1 ± 3.2 number
same,Shifts: Shift from dSWS to AW,[3]; 30 mg/kg i.p.,8.7 ± 5.3 number
same,Shifts: Shift from dSWS to PW,[3]; 30 mg/kg i.p.,17.6 ± 12.0 number
same,duration of continuous wakefulness,[4]; 50 mg/kg PO,up to 3 hours
same,duration of continuous wakefulness,[4]; 100 mg/kg PO,≤ 4 h
same,duration of continuous wakefulness,[4]; 150 mg/kg PO,≤ 5 h
same,bouts of wakefulness,"[4]; 50-150 mg/kg PO, wild-type and narcoleptic mice",significantly increased bouts of wakefulness
same,effect on wakefulness,"[4]; active (dark) period, ZT14, PO",dose-dependently increased wakefulness
same,wake amounts in narcoleptic mice relative to wild-type mice,"[4]; active period, 100 and 150 mg/kg PO",brought up to the levels of wild-type mice
same,amounts of non-REM and REM sleep in narcoleptic mice relative to wild-type mice,"[4]; active period, PO",brought down to the levels of wild-type mice
same,Non-REM and REM sleep during the period of continuous wakefulness,"[4]; resting period, 50, 100, 150 mg/kg PO",completely suppressed
same,EEG patterns after administration,"[4]; resting period, 50-150 mg/kg PO",no abnormal EEG patterns
same,effect on REM sleep,"[4]; resting period, PO",potently reduced REM sleep
same,wake-promoting effects,"[4]; resting period, wild-type and hypocretin-deficient narcoleptic mice, PO",Very potent wake-promoting effects
